According to patent US20030088888A1, “Method of plant transformation” (priority 2001, published 2003):

Tested on: gypsophila stem explants
Assay: Transient transformation (GUS expression) of stem explants from GA3-pretreated plants after cocultivation with Agrobacterium tumefaciens EHA105/pKIWI105
Format: in vivo, Gypsophila paniculata L.
Protocol: Unrooted cuttings of gypsophila (Gypsophila paniculata L.) cultivars Arbel, Pestival, Flamingo, Yokinko, New Hope and P2000 were obtained from Danziger “DAN” Flower Farm (Moshav Mishmar Hashiva, Israel). Stem cuttings with six or eight filly mature leaves (not counting the apical leaves which were not fully expanded), harvested from greenhouse-grown plants and stored for up to 2 weeks at 4° C., were used to prepare stem explants (Zuker A, Ahroni A, Shejtman H and Vainstein A (1997). Adventitious shoot regeneration from leaf explants of Gypsophila paniculata L. Plant Cell Reports, 16: 775-778; Ahroni A, Zuker A, Rozen Y, Shejtman H and Vainstein A (1997). An efficient method for adventitious shoot regeneration from stem-segment explants of gwpsophila. Plant Cell Tiss Org Cult 49: 101-106). Twenty days prior to harvesting of cuttings (unless otherwise i5 indicated), mother plants were sprayed once with approximately 4 ml. of 1 mM GA3.
Cuttings were rinsed with 70% ethanol, then sterilized for 10 min in 1.5% (w/v) sodium hypochlorite and rinsed three times for 10 min each in sterile water. The leaves and shoot apices of the cutting were discarded and the three primary nodes were immersed for 10 min in a bacterial (A. tumefaciens EHA105/pKIWI105) suspension (OD550=1). Inoculated stem explants were then blotted dry and cultured in an upright position on the cocultivation medium for a period of up to 5 days. Following cocultivation, stem explants were histochemically evaluated for transient GUS expression by counting the number of GUS-expressing stem explants, as well as the number of blue spots per explant under a stereo-microscope.
A histochemical assay of GUS activity was performed according to Stomp (1992). Tissue samples were incubated for a few hours to overnight at 37° C. in a 0.1% (w/v) X-Gluc (5-bromo-4-chloro-3-indolyl β-D-glucuronic acid sodium salt, Biosynth Inc., Staad, Switzerland) solution containing 0.1 M sodium phosphate buffer (pH 7.0), 10 mM EDTA, and 0.1% (w/v) Triton X-100. When necessary, green tissues were bleached, after staining, by immersion in 50% (v/v) EtOH for a few hours, followed by several washes with 70% EtOH. It should be noted that no background GUS activity was detectable in any of the analyzed tissues of control plants.

For `C=C1C[C@]23C[C@@]1(O)CC[C@H]2[C@@]12C=C[C@H](O)[C@@](C)(C(=O)O1)[C@H]2[C@@H]3C(=O)O` [GA3], the “increase in frequency of transient transformation events (number of blue spots per explant)” value (cv. Arbel, explants from 20 day versus 10 day GA3 treated plants) was “ca. 3 times”, the “percentage of GUS-expressing stem explants out of total number of explants inoculated” value (cv. Arbel, explants from plants 20 days after GA3 treatment (1 mM spray), 5-day cocultivation with EHA105/pKIWI105) was 90% and the “percentage of inoculated explants expressing GUS” value (cvs. Pestival and Flamingo, GA3-treated plants, cocultivation with EHA105/pKIWI105, dark then light, 5 days) was “ca. 75%”. For the same compound, the “transient transformation (qualitative)” value (explants from cuttings of plants treated with GA3, versus no transient transformation without GA3) was “efficient and highly reproducible transient transformation was obtained”.
